The results in this text go back to patent US11000537B2, “Composition comprising novel ginsenoside” (AMOREPACIFIC CORPORATION, priority 2018, dated 2021).

The subject of assay [1] is 3T1-L1 adipocytes. Briefly: glucose uptake (glucose transport) in differentiated adipocytes. The assay is classed as cell-based. As to conditions: 10 μM, FIG. 13. The procedure: 3T1-L1 adipocytes (ATCC) were purchased, and 10% bovine calf serum (Hyclone) and 1% penicillin/streptomycin (Sigma) were added to a Dulbecco's Modified Eagle's Medium (Sigma) and cultured in a 5% CO2 culture medium. In order to differentiate preadipocyte cells into adipocytes, a culture plate was filled with cells and cultured for 48 hours. The cells were then replaced in a DMEM medium to which 10% fetal bovine serum (FBS) (Hyclone), 0.5 mM 3-isobutyl-1-methylxanthine (Sigma), 1 μM dexamethasone (Sigma), 5 μg/ml insulin (Sigma), and 1% penicillin/streptomycin were added and cultured for another 48 hours. Thereafter, the cells were further cultured for 14 days while being replaced in a medium containing 10% FBS, 5 μg/ml insulin, and 1% penicillin/streptomycin at two-day intervals to obtain fully differentiated adipocytes. […] As a positive control for measuring glucose uptake in blood, Metformin (Sigma; 10 μM), which is used as a diabetic therapeutic agent, was used, and novel ginsenoside GS #10, which is an example of the present disclosure, isolated from Ginseng seed extract and ginsenosides GS #01-GS #06, which are comparative examples of the present disclosure, were treated with 10 μM each. In addition, both insulin-dependent/independent glucose transport capacity was measured by treating insulin together, which may promote glucose uptake.

In assay [2] the test system is adipocyte cell 3T3-L1. As to the kind of experiment: fat accumulation in adipocytes (Oil-red O staining). The assay is classed as cell-based. As to conditions: 10 μM during 48 hours of differentiation; FIG. 34. The procedure:
The adipocyte cell 3T3-L1 purchased from the International Center for Biological Resources (ATCC) were placed in Dulbecco's Modified Eagle's Medium (Sigma) to which 10% fetal bovine serum (Hyclone) and 1% penicillin/streptomycin (Sigma) were added, and cultured in a 5% CO2 incubator. In order to differentiate preadipocytes into adipocytes, the cells were filled in a culture plate and cultured. After 48 hours, the cells were replaced with Dulbecco's modified eagle medium (DMEM) to which 10% of fetal bovine serum (Hyclone), 0.5 mM of 3-isobutyl-1-methylxanthine (Sigma), 1 μM of dexamethasone (Sigma), 5 μg/ml of insulin (Sigma), 1% of penicillin/streptomycin (Sigma) were added and further cultured for 48 hours. […] As a control to confirm the effect of inhibiting adipocyte differentiation, 20 μM of bisphenol A diglycidyl ether (BADGE) (Sigma), a PPARγ (Peroxisome proliferator-activated receptor gamma) antagonist, was used. Thereafter, the cells were further cultured for 10 days while being replaced with a medium containing 10% FBS and 5 μg/ml insulin and 1% penicillin/streptomycin at two-day intervals to induce adipocyte differentiation.
Differentiated adipocytes treated with each of the seven types of ginsenosides were fixed with formaldehyde solution (Sigma), stained with Oil-red O staining solution (Sigma), and then dissolved with isopropanol (Sigma), and then the amount of the stained fat was quantified by measuring at 490 nm absorbance.

Assay [3] deals with pancreatic lipase. As to the kind of experiment: pancreatic lipase activity inhibition (Pancreatic Lipase Activity Assay Kit). The assay is classed as cell-based. The following applies: 10 μM, 1 hour; FIG. 22. On the procedure: The hepatocyte cell line HepG2 purchased from the International Center for Biological Resources (ATCC) were placed in Dulbecco's Modified Eagle's Medium (Sigma) to which 10% fetal bovine serum (Hyclone) and 1% penicillin/streptomycin (Sigma) were added, and cultured in a 5% CO2 incubator. As a positive control for the cells, Xenical (Sigma), which are used as pancreatic lipase inhibitors and anti-obesity therapeutic agents, and seven types of ginsenosides (GS #01-GS #06, GS #10; 10 μM each) extracted from Ginseng seed were treated for 1 hour. In addition, Pancreatic Lipase Activity Assay Kit (Abcam) was used to observe the inhibition of each lipase activity.

Assay [4] relates to α-glucosidase. Briefly: α-glucosidase enzyme activity inhibition. The assay is classed as biochemical. The following applies: Test Example 1, FIG. 12; ginseng seed ginsenosides compared. On the procedure:
(§1) As a polysaccharide degrading enzyme, pancreatic α-amylase and α-glucosidase were purchased from Sigma, and the enzyme activity of novel ginsenoside GS #10, which is an example of the present disclosure, isolated from Ginseng seed extract and ginsenosides GS #01-GS #06, which are comparative examples of the present disclosure, was measured. In order to measure α-amylase activity, enzyme solution was prepared by dissolving BSA 0.1 g, 0.01 g/L NaN3, α-amylase 0.2857 g in 50 mL of PBS (phosphate buffered saline), and 5 mM of p-nitrophenyl-α-D-maltopentoglycoside was dissolved in another PBS to make a substrate solution. 0.1 mL of the test substance was added to 0.5 mL of the enzyme solution, and then the initial absorbance was measured at 405 nm. After adding 0.5 mL of the substrate solution and reacting it for 5 minutes, the absorbance was measured again. The change in enzyme activity was measured by the difference in absorbance between the two reactions. The method for measuring α-glucosidase activity is the same as the method for measuring α-amylase activity, and differs only in α-glucosidase and substrate (p-nitrophenyl-α-D-glucopyranoside). As a positive control to observe the inhibition of enzyme activity, acarbose, which is an α-amylase inhibitor and α-glucosidase inhibitor derived from wheat seed sold by Sigma, was used.

In assay [5] the target is T1, pancreatic α-amylase (Sus scrofa, UniProt P00690).
T1 construct: purchased Sigma
T1 sequence (P00690 16-511): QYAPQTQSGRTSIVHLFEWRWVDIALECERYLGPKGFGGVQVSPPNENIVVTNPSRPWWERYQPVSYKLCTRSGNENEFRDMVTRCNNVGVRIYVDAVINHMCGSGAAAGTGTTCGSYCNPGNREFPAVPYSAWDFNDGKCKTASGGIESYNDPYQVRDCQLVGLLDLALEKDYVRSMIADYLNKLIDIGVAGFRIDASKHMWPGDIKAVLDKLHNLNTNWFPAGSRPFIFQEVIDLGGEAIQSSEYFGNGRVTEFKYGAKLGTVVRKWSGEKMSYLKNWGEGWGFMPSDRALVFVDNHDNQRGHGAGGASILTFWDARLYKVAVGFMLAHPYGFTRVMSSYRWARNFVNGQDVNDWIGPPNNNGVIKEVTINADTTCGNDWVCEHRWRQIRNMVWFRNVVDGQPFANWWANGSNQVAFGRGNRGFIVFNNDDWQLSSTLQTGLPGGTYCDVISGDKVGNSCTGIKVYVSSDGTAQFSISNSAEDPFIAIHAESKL
Briefly: α-amylase enzyme activity inhibition. The assay is classed as biochemical. As to conditions: Test Example 1, FIG. 11; ginseng seed ginsenosides compared. On the procedure:
as §1

Setting [6] is: combined with insulin (+insulin).
Where [7] appears, read: material-only treatment (−insulin).

Each structure is given as a SMILES string.

As for `CN(C)C(=N)N=C(N)N` [metformin, Metformin], the glucose transport promotion entry in assay [1] (setting [6]) is “the glucose transport is further increased as compared with the insulin-only treatment group”.

On to `CC(C)=CCC[C@](C)(O)[C@H]1CC[C@]2(C)[C@@H]1[C@H](O)C[C@@H]1[C@@]3(C)CC[C@H](O)C(C)(C)[C@@H]3[C@@H](O[C@@H]3O[C@H](CO)[C@@H](O)[C@H](O)[C@H]3O[C@@H]3O[C@@H](C)[C@H](O)[C@@H](O)[C@H]3O)C[C@]12C` [GS #02, ginsenoside Rg2], for which the glucose transport promotion entry in assay [1] (setting [6]) is “further increase by insulin treatment”; in assay [1] (setting [7]), “statistically significant glucose transport promotion”.

Consider `CC(C)=CCC[C@](C)(O[C@@H]1O[C@H](CO)[C@@H](O)[C@H](O)[C@H]1O)[C@H]1CC[C@]2(C)[C@@H]1[C@H](O)C[C@@H]1[C@@]3(C)CC[C@H](O)C(C)(C)[C@@H]3[C@@H](O[C@@H]3O[C@H](CO)[C@@H](O)[C@H](O)[C@H]3O)C[C@]12C` [GS #01, ginsenoside Rg1], for which the glucose transport promotion entry in assay [1] (setting [6]) was “further increase by insulin treatment”; in assay [1] (setting [7]), “statistically significant glucose transport promotion”.

`CC(C)=CCC[C@](C)(O[C@@H]1O[C@H](CO[C@@H]2OC[C@H](O)[C@H](O)[C@H]2O)[C@@H](O)[C@H](O)[C@H]1O)[C@H]1CC[C@]2(C)[C@@H]1[C@H](O)C[C@@H]1[C@@]3(C)CC[C@H](O[C@@H]4O[C@H](CO)[C@@H](O)[C@H](O)[C@H]4O[C@@H]4O[C@H](CO)[C@@H](O)[C@H](O)[C@H]4O)C(C)(C)[C@@H]3CC[C@]12C` [GS #06, ginsenoside Rb2, reference compound]: in assay [2], the “fat accumulation inhibitory effect in adipocytes” value is “except some (GS #05, GS #06) of seven types of ginsenosides (GS #01-GS #06, GS #10; 10 μM each) extracted from Ginseng seeds, all of them was observed to reduce the amount of fats in adipocytes”. Also, the “pancreatic lipase activity inhibitory effect” value in assay [3] is “except for some of the previously known ginsenosides (GS #05, GS #06), all showed a significant inhibitory effect”. The “α-glucosidase activity inhibitory effect” value in assay [4] is “no activity inhibitory effect”. Moreover, in assay [5], the “α-amylase activity inhibitory effect” value is “all except GS #06 showed significant activity inhibitory effect”.

Regarding `CC(C)=CCC[C@](C)(O[C@@H]1O[C@H](CO)[C@@H](O)[C@H](O)[C@H]1O)[C@H]1CC[C@]2(C)[C@@H]1[C@H](O)C[C@@H]1[C@@]3(C)CC[C@H](O)C(C)(C)[C@@H]3[C@@H](O[C@@H]3O[C@H](CO)[C@@H](O)[C@H](O)[C@H]3O[C@@H]3O[C@@H](C)[C@H](O)[C@@H](O)[C@H]3O)C[C@]12C` [GS #03, ginsenoside Re], the glucose transport promotion result in assay [1] (setting [6]) was “further increase by insulin treatment”; in assay [1] (setting [7]), “statistically significant glucose transport promotion”.

For the molecule `CC(C)=CCC[C@](C)(O[C@@H]1O[C@H](CO[C@@H]2O[C@H](CO)[C@@H](O)[C@H](O)[C@H]2O)[C@@H](O)[C@H](O)[C@H]1O)[C@H]1CC[C@]2(C)[C@@H]1[C@H](O)C[C@@H]1[C@@]3(C)CC[C@H](O[C@@H]4O[C@H](CO)[C@@H](O)[C@H](O)[C@H]4O[C@@H]4O[C@H](CO)[C@@H](O)[C@H](O)[C@H]4O)C(C)(C)[C@@H]3CC[C@]12C` [GS #05, ginsenoside Rb1, reference compound], the “fat accumulation inhibitory effect in adipocytes” value in assay [2] is “except some (GS #05, GS #06) of seven types of ginsenosides (GS #01-GS #06, GS #10; 10 μM each) extracted from Ginseng seeds, all of them was observed to reduce the amount of fats in adipocytes”. In addition, the “pancreatic lipase activity inhibitory effect” value in assay [3] was “except for some of the previously known ginsenosides (GS #05, GS #06), all showed a significant inhibitory effect”. Besides, the “α-glucosidase activity inhibitory effect” value in assay [4] is reported as “no activity inhibitory effect”.
